The source of these data is ChEMBL document CHEMBL5291721, “A preclinical secondary pharmacology resource illuminates target-adverse drug reaction associations of marketed drugs” (Nat Commun, 2023).

Some results are limits rather than exact numbers.

Test [1] concerns the target T1, 5-hydroxytryptamine receptor 1A (Homo sapiens, UniProt P08908).
T1 sequence (P08908 whole entry): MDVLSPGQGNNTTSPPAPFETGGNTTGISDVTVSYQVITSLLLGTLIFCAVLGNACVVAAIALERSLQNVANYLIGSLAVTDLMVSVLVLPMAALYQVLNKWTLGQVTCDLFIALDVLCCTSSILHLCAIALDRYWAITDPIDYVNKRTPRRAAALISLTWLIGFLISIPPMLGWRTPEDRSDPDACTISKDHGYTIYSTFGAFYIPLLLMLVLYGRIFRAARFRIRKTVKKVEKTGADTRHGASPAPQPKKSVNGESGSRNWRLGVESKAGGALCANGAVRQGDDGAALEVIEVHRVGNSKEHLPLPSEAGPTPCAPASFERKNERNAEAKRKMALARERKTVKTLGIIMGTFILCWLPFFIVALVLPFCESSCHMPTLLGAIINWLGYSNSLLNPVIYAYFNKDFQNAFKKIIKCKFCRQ
Format: functional, cell-based.

Test [2] concerns the target Beta-1 adrenergic receptor (Homo sapiens, UniProt P08588). Format: functional.
Test [3] deals with T2, Alpha-2C adrenergic receptor (Homo sapiens, UniProt P18825).
T2 sequence (P18825 whole entry): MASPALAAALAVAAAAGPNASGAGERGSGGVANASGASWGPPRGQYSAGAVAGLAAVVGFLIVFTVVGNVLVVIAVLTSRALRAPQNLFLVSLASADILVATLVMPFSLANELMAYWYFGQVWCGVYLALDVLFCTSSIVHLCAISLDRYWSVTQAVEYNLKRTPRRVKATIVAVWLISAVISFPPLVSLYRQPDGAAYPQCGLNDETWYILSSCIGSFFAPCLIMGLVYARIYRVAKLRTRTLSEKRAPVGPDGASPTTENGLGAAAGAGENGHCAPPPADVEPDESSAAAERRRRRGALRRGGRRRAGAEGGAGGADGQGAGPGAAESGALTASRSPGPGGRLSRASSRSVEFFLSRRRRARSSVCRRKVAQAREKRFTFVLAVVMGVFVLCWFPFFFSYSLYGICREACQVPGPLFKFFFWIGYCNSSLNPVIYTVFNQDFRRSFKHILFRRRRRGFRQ
Format: functional.

Test [4] has as its target T3, Muscarinic acetylcholine receptor M1 (Homo sapiens, UniProt P11229).
T3 sequence (P11229 whole entry): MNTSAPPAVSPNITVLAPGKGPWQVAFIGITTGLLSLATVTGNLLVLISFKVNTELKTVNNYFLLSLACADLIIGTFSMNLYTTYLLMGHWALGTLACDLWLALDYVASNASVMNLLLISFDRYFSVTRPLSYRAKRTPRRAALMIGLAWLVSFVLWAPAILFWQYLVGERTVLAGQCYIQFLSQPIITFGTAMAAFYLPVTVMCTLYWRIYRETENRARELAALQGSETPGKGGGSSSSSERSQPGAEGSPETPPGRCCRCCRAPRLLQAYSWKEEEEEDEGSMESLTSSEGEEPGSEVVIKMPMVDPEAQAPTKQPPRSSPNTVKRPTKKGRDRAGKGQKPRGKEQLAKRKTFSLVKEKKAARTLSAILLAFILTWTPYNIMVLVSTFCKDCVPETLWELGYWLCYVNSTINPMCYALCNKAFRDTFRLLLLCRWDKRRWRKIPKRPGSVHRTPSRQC
Format: functional.

For test [5], the target named is T4, B2 bradykinin receptor (Homo sapiens, UniProt P30411).
T4 sequence (P30411 whole entry): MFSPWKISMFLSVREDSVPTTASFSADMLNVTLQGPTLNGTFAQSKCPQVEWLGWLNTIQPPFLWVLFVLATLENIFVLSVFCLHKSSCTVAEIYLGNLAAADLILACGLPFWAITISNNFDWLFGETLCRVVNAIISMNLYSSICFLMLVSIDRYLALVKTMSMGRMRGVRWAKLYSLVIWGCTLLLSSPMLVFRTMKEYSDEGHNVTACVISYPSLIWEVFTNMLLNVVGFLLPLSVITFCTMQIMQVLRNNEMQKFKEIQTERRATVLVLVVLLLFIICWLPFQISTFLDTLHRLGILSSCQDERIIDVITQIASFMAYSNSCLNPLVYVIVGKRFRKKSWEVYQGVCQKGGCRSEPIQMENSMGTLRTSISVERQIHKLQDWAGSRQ

The target in test [6] is T5, Alpha-1A adrenergic receptor (Homo sapiens, UniProt P35348).
T5 sequence (P35348 whole entry): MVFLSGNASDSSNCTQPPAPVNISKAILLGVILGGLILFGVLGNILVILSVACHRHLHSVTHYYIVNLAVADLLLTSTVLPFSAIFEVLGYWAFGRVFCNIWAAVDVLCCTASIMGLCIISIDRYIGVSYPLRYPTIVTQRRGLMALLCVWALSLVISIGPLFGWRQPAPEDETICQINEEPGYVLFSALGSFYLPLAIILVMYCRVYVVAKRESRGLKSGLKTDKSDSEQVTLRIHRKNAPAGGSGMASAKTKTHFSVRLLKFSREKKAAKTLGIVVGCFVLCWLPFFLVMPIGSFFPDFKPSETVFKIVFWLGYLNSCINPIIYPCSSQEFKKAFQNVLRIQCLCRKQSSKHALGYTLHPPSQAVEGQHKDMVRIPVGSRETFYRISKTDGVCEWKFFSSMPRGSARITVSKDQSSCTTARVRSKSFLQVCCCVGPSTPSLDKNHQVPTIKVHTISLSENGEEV

For test [7], the target named is T6, Thromboxane A2 receptor (Homo sapiens, UniProt P21731).
T6 sequence (P21731 whole entry): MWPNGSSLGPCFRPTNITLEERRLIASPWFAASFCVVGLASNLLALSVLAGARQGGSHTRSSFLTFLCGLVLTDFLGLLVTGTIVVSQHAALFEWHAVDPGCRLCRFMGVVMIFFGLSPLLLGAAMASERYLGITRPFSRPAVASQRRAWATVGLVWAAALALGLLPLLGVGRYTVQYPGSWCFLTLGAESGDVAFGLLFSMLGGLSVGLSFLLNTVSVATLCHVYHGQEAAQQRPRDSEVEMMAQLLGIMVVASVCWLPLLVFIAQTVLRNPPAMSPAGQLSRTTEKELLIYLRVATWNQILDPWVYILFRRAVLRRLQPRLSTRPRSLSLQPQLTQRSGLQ

The target in test [8] is Mu-type opioid receptor (Homo sapiens, UniProt P35372).
Also: assay procedure not described here.

Chain of Beta-1 adrenergic receptor (P08588 whole entry): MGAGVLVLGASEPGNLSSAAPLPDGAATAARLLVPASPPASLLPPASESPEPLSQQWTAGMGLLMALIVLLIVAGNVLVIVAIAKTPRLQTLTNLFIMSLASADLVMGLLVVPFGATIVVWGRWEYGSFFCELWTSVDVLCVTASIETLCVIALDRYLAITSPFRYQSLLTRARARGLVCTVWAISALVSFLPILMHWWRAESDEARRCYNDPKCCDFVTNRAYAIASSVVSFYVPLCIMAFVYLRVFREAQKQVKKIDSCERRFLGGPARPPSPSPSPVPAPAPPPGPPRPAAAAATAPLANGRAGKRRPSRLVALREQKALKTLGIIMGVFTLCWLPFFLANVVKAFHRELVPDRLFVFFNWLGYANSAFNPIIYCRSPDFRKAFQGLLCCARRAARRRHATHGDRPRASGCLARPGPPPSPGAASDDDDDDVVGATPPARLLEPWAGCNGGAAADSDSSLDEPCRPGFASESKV
Chain of Mu-type opioid receptor (P35372 whole entry): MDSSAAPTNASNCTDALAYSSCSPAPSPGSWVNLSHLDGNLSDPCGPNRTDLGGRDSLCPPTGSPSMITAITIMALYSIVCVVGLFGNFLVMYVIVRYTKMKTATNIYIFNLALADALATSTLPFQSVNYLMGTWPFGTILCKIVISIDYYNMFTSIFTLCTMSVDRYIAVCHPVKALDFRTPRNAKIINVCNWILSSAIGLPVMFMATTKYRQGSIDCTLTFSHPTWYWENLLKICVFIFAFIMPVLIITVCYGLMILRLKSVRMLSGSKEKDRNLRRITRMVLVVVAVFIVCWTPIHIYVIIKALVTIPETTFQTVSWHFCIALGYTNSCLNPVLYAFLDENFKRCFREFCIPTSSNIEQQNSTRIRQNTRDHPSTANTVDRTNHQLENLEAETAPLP

With `COC(=O)[C@H]1[C@H]2C[C@@H]3c4[nH]c5ccccc5c4CCN3C[C@H]2C[C@@H](OC(=O)c2cc(OC)c(OC)c(OC)c2)[C@@H]1OC` [DESERPIDINE], the AC50 in test [1] was more than 10 µM; in test [2], more than 10 µM; in test [3], 12 µM; in test [4], more than 10 µM; in test [5], more than 30 µM; in test [6], more than 10 µM. For the same compound, the AC50 in test [7] was more than 30 µM; in test [8], 8.3 µM.

On to `CC(C)(N)Cc1ccccc1` [PHENTERMINE], for which the AC50 in test [1] was more than 10 µM; in test [2], more than 10 µM; in test [3], more than 10 µM; in test [4], more than 10 µM; in test [5], more than 30 µM; in test [6] it was more than 10 µM. The AC50 in test [7] and in test [8] was more than 30 µM each time.

Consider `CCC(=O)[C@@]1(C)[C@H](C)C[C@H]2[C@@H]3CCC4=CC(=O)C=C[C@]4(C)[C@H]3[C@@H](O)C[C@@]21C` [RIMEXOLONE], for which the AC50 in test [1], in test [2], in test [3], in test [4], in test [5] and in test [6] was more than 10 µM in each case. Besides, the AC50 in test [7] is more than 10 µM; in test [8], more than 30 µM.

Regarding `CCN(CC)C(C)C(=O)c1ccccc1` (stereo not given) [DIETHYLPROPION], the AC50 was more than 10 µM in test [1]; more than 10 µM in test [2]; more than 10 µM in test [3]; more than 10 µM in test [4]; more than 30 µM in test [5]; more than 10 µM in test [6]. The AC50 in test [7] and in test [8] was more than 30 µM throughout.

`CCN(CC)CCCN(c1ccccc1)C1Cc2ccccc2C1` [APRINDINE]: the AC50 in test [1] is more than 10 µM; in test [2], more than 30 µM; in test [3], 7.9 µM; in test [4] it was 14.5 µM; in test [5], more than 30 µM; in test [6], 1.3 µM. Besides, the AC50 is more than 10 µM in test [7] and 19 µM in test [8].

TEPRENONE: the concentration at half-maximal activity (AC50) was more than 30 µM in test [1]; more than 30 µM in test [2]; more than 10 µM in test [3]; more than 10 µM in test [4]; more than 30 µM in test [5]; more than 10 µM in test [6]. Moreover, the half-maximal activity concentration (AC50) in test [7] and in test [8] was more than 30 µM each time.

Regarding `CCC1(CC)C(=O)NC(=O)N(C)C1=O` [METHARBITAL], the AC50 in test [1], in test [2], in test [3], in test [4], in test [5] and in test [6] was more than 10 µM throughout. Further, the AC50 in test [7] was more than 10 µM; in test [8] it was more than 30 µM.

For `CC(=O)OCC1=C(C(=O)O)N2C(=O)[C@@H](NC(=O)CSc3ccncc3)[C@H]2SC1` [CEPHAPIRIN], the AC50 in test [1], in test [2], in test [3], in test [4], in test [5] and in test [6] was more than 10 µM each time. The AC50 in test [7] was more than 10 µM; in test [8] it was more than 30 µM.

For the compound `O=C(C[S+]([O-])Cc1ccco1)NC/C=C\COc1cc(CN2CCCCC2)ccn1` (stereo not given) [LAFUTIDINE], the half-maximal activity concentration (AC50) in test [1] is more than 30 µM; in test [2] it was more than 10 µM; in test [3], 2.6 µM; in test [4] it was more than 10 µM; in test [5], more than 10 µM; in test [6], more than 10 µM. In addition, the concentration at half-maximal activity (AC50) in test [7] was more than 10 µM; in test [8], more than 30 µM.

Turning to `COc1ccc(C(Cl)=C(c2ccc(OC)cc2)c2ccc(OC)cc2)cc1` [CHLOROTRIANISENE], the AC50 was more than 10 µM in test [1]; more than 30 µM in test [2]; more than 30 µM in test [3]; more than 30 µM in test [4]; more than 30 µM in test [5]; more than 10 µM in test [6]. Moreover, the AC50 was more than 10 µM in test [7] and more than 30 µM in test [8].
